Experiments:
Assay in all cases: relative viability (nuclei count vs DMSO), 5 days (fraction); higher = more cells survive
[1] = compound: C1=CC=C2C(=C1)N=C(S2)C(C#N)C3=NC(=NC=C3)NCCC4=CN=CC=C4 + Nc1nc2[nH]cc(CCc3ccc(C(=O)N[C@@H](CCC(=O)O)C(=O)O)cc3)c2c(=O)[nH]1 [Pemetrexed] (partner 0.2 µM)
Method in brief: (§1)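 Nuclei were stained with Hoechst during a one-step fixation (final 0.05% Triton X-100, 1% formaldehyde, 1 ug/ml Hoechst) carried out 5 days after dosing, then counted on 4× images. The cells, lung cancer lines in 1536-well plates, had been dosed by pin tool the day after seeding with one drug alone or a fixed anchor-drug dose plus five library-drug doses (not always all listed) in √10 steps. Relative viability is the nuclei count in treated wells divided by that in vehicle wells, and each value is the median of duplicate plates.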

[2] = compound: C1=CC=C2C(=C1)N=C(S2)C(C#N)C3=NC(=NC=C3)NCCC4=CN=CC=C4 + COc1cccc2cc(-c3nc([C@H]4CC[C@H](C(=O)O)CC4)n4ncnc(N)c34)[nH]c12 [OSI-027] (partner 0.5 µM)
Method in brief: as §1

Vandetanib + Tozasertib = compound: COc1cc2/c(=N/c3ccc(Br)cc3F)nc[nH]c2cc1OCC1CCN(C)CC1 [Vandetanib] + Cc1cc(Nc2cc(N3CCN(C)CC3)nc(Sc3ccc(NC(=O)C4CC4)cc3)n2)n[nH]1 [Tozasertib] (partner 0.1 µM)
Method in brief: as §1

CUDC-101 + Pemetrexed = compound: C#Cc1cccc(Nc2ncnc3cc(OC)c(OCCCCCCC(=O)NO)cc23)c1 [CUDC-101] + Nc1nc2[nH]cc(CCc3ccc(C(=O)N[C@@H](CCC(=O)O)C(=O)O)cc3)c2c(=O)[nH]1 [Pemetrexed] (partner 0.2 µM)
Method in brief: as §1

Cell Line	relative viability ([1]; first compound 0.005 µM)	relative viability ([1]; first compound 0.01581 µM)	relative viability ([1]; first compound 0.05 µM)	relative viability ([1]; first compound 0.1581 µM)	relative viability ([1]; first compound 0.5 µM)	relative viability ([2]; first compound 0.005 µM)	relative viability ([2]; first compound 0.01581 µM)	relative viability ([2]; first compound 0.05 µM)	relative viability ([2]; first compound 0.1581 µM)	relative viability ([2]; first compound 0.5 µM)	relative viability (Vandetanib + Tozasertib; first compound 0.02 µM)	relative viability (Vandetanib + Tozasertib; first compound 0.06325 µM)	relative viability (Vandetanib + Tozasertib; first compound 0.2 µM)	relative viability (Vandetanib + Tozasertib; first compound 0.6325 µM)	relative viability (Vandetanib + Tozasertib; first compound 2 µM)	relative viability (CUDC-101 + Pemetrexed; first compound 0.01 µM)	relative viability (CUDC-101 + Pemetrexed; first compound 0.03162 µM)	relative viability (CUDC-101 + Pemetrexed; first compound 0.1 µM)	relative viability (CUDC-101 + Pemetrexed; first compound 0.3162 µM)	relative viability (CUDC-101 + Pemetrexed; first compound 1 µM)
NCI-H522	1.22	0.698	1.01	0.807	1.03	0.674	0.681	0.717	0.713	0.685	0.588	0.57	0.593	0.621	0.597	0.87	0.802	1.05	0.963	0.765
RERF-LC-KJ	0.468	0.505	0.465	0.507	0.502	0.645	0.564	0.511	0.63	0.562	0.549	0.515	0.491	0.439	0.477	0.476	0.493	0.438	0.42	0.357
A-427	0.874	0.94	0.995	1.1	0.975	0.481	0.467	0.442	0.475	0.39	0.215	0.248	0.219	0.155	0.223	0.954	0.971	0.982	0.821	0.763
EKVX	0.398	0.382	0.39	0.459	0.417	0.736	0.909	0.681	0.69	0.659	0.431	0.424	0.398	0.409	0.27	0.395	0.435	0.442	0.373	0.35
NCI-H460		0.0618	0.0556	0.0607	0.0831	0.281	0.735	0.67	0.727	0.238	0.399	0.432	0.371	0.391	0.457	0.0606	0.0635	0.0676	0.0669	0.0703
HARA	0.271	0.205	0.259	0.283	0.305	0.602	0.373	0.493	0.464	0.472	0.111	0.118	0.0738	0.466	0.0849	0.253	0.237		0.243	0.176
NCI-H1944	0.605	0.665	0.66	0.558	0.576	0.396	0.343	0.417	0.513	0.359	0.262	0.265	0.235	0.239	0.243	0.62	0.615	0.597	0.582	0.43
BEN	0.751	0.627	0.773	0.883	0.741	0.427	0.283	0.274	0.625	0.587	0.582	0.464	0.521	0.462	0.452	0.812	0.727	0.78	0.703	0.769
PC-14	0.155	0.133	0.106	0.136	0.148	0.606	0.923	0.669	1.22	0.729	0.598	0.542	0.554	0.478	0.191	0.154	0.129	0.156	0.138	0.152
NCI-H322M	0.608	0.602	0.569	0.582	0.607	0.515	0.463	0.529	0.585	0.685	0.52	0.454	0.521	0.465	0.291	0.636	0.604	0.585	0.569	0.453
NCI-H1651	0.41	0.527	0.597	0.708	0.381	0.69	0.672	0.72	0.939	0.674	0.68	0.688	0.14	0.854	0.686	0.614	0.579	0.579	0.577	0.523
LCLC-97TM1	0.196	0.185	0.181	0.172	0.198	0.562	0.701	0.537	0.607	0.572	0.219	0.225	0.346	0.24	0.251	0.166	0.172	0.183	0.157	0.135
NCI-H727						0.814	0.526	0.568	0.748	0.508	0.689	0.498	0.504	0.529	0.488					
NCI-H1623						0.488	0.386	0.397	0.553	0.345	0.431	0.4	0.388	0.41	0.445					
NCI-H1666	0.835	0.823	0.832	0.852	0.827	0.776	0.839	0.804	0.849	0.812	0.606	0.581	0.387	0.577	0.633	0.985	0.843	0.774	0.854	0.833
NCI-H1792		0.889	0.875	1.22	0.335	0.648	0.64	0.759	1.16	0.36						0.856	0.787	0.915	0.721	0.581
HCC-366	0.177	0.146	0.145	0.165	0.164	0.482	0.961	0.856	1.05	0.672	0.125	0.112	0.0453	0.174	0.0919	0.163	0.157	0.137	0.177	0.201

Cell Line	relative viability ([1]; first compound 0.005 µM)	relative viability ([1]; first compound 0.01581 µM)	relative viability ([1]; first compound 0.05 µM)	relative viability ([1]; first compound 0.1581 µM)	relative viability ([1]; first compound 0.5 µM)	relative viability ([2]; first compound 0.005 µM)	relative viability ([2]; first compound 0.01581 µM)	relative viability ([2]; first compound 0.05 µM)	relative viability ([2]; first compound 0.1581 µM)	relative viability ([2]; first compound 0.5 µM)	relative viability (Vandetanib + Tozasertib; first compound 0.02 µM)	relative viability (Vandetanib + Tozasertib; first compound 0.06325 µM)	relative viability (Vandetanib + Tozasertib; first compound 0.2 µM)	relative viability (Vandetanib + Tozasertib; first compound 0.6325 µM)	relative viability (Vandetanib + Tozasertib; first compound 2 µM)	relative viability (CUDC-101 + Pemetrexed; first compound 0.01 µM)	relative viability (CUDC-101 + Pemetrexed; first compound 0.03162 µM)	relative viability (CUDC-101 + Pemetrexed; first compound 0.1 µM)	relative viability (CUDC-101 + Pemetrexed; first compound 0.3162 µM)	relative viability (CUDC-101 + Pemetrexed; first compound 1 µM)
NCI-H1437	0.329	0.298	0.321	0.335	0.311	0.855	0.817	0.93	0.917	0.723	0.408	0.402	0.134	0.402	0.389	0.336	0.306	0.337	0.31	0.316
EPLC-272H		0.255	0.317	0.325	0.326	0.217	0.264	0.254	0.257	0.301	0.25		0.285	0.282	0.306	0.345	0.316	0.428	0.387	0.235
HCC-15	0.215	0.23	0.223	0.228	0.227	0.558	0.644	0.722	0.863	0.531	0.555	0.416	0.07	0.35	0.347	0.212	0.244	0.226	0.217	0.198
NCI-H2347	0.405	0.515	0.471	0.409	0.461	0.454	0.394	0.39	0.58	0.408	0.607		0.553	0.563	0.674	0.458	0.418	0.434	0.479	0.405
COR-L 105	0.839	1.24	1.03	1.03	1.02	0.576	0.556	0.71	0.768	0.547	0.331	0.355	0.223	0.317	0.286	1.04	0.967	1.1	1.12	0.931
NCI-H1650	0.382	0.385	0.395	0.353	0.27	0.557	0.56	0.611	0.689	0.354	0.354	0.24	0.146	0.378	0.374	0.381	0.297	0.389	0.397	0.351
NCI-H838	0.216	0.242	0.243	0.262	0.249	0.4	0.351	0.361	0.459	0.396	0.264	0.273	0.193	0.253	0.229	0.332	0.248	0.257	0.26	0.198
NCI-H2009	0.992	1.05	0.98	1.09	1.02	0.649	0.547	0.564	0.726	0.603	0.733	0.704	0.419	0.735	0.786	1.05	1.02	1.02	0.994	0.997
SK-MES-1	0.799	0.923	0.823	1.04	0.644	0.483	0.659	0.48	0.722	0.558	0.93	0.84	1.01	1.04	0.847	0.896	0.946	0.922	0.972	0.724
H3255	0.568	0.558	0.532	0.622	0.584	0.732	0.596	0.608	0.581	0.702	0.469	0.727	0.579	0.554	0.345	0.62	0.543	0.408	0.449	0.304
HCC-78	0.793	0.886	0.92	0.92	0.784	0.367	0.35	0.332	0.438	0.36	0.502	0.451	0.41	0.548	0.404	0.876	0.942	0.921	0.912	0.862
EMC-BAC-2	0.488	0.442	0.414	0.477	0.429	0.364	0.37	0.38	0.394	0.366	0.317	0.307	0.151	0.319	0.286	0.464	0.399	0.46	0.394	0.354
NCI-H2170	0.275	0.26	0.27	0.27	0.274	0.687	0.653	0.718	0.698	0.706	0.75	0.733	0.796	0.685	0.764	0.281	0.257	0.24	0.234	0.254
NCI-H2228	0.302	0.324	0.305	0.379	0.259	0.404	0.556	0.561	0.578	0.492	0.263	0.304	0.124	0.219	0.214	0.352	0.359	0.333	0.392	0.346
NCI-H1563	0.751	0.728	0.696	0.779	0.764	0.643	0.744	0.705	0.838	0.618						0.78	0.758	0.844	0.773	0.512
ABC-1						0.592	0.407	0.51	0.606	0.517	0.177	0.173	0.189	0.183	0.117					

— the supplement of paper PMC10307832
